Active and inactive are the calls of the source.
Assays:
[1] = growth inhibition of intracellular T. cruzi, dose response, cell-based, plate reader, dry powder samples (AID 651845); type: functional
[2] = T. cruzi intracellular amastigote growth inhibition, dose response, imaging, CA-I/72 strain, bovine embryo skeletal muscle, dry powder (AID 651885); type: functional, cell-based
[3] = target: RNA-editing ligase 1, mitochondrial (Trypanosoma brucei brucei, UniProt P86926); experiment: TbREL1 ligase inhibitors, dose response, biochemical, fluorescence, Trypanosoma brucei (AID 1117295); type: functional
[4] = target: T1, Oxysterols receptor LXR-beta (Homo sapiens, UniProt P55055); type: functional, cell-based;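 also: Cell-based luminescence dose-response assay of agonist activity at LXR, run as a confirmatory counterscreen to a daf-12 agonist screen; HEK293 cells with Gal4-LXR fusion and GAL4-driven luciferase reporter; agonist potency from rising luciferase signal of a Gal4-LXR reporter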
T1 sequence (P55055 whole entry): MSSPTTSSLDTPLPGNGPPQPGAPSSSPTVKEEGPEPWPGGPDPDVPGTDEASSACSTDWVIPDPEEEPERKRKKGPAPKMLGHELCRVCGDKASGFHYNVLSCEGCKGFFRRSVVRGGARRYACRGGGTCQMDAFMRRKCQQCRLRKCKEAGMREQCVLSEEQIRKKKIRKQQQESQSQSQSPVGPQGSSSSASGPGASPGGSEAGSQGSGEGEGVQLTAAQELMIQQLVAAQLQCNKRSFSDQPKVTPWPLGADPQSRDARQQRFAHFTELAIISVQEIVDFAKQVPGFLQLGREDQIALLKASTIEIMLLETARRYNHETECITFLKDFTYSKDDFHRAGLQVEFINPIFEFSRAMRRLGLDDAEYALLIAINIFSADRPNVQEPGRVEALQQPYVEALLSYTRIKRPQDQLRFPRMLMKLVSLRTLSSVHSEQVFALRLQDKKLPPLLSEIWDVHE

Cytochrome P450 2C19 = Cytochrome P450 2C19 (Homo sapiens, UniProt P33261); experiment: qHTS Assay for Inhibitors and Substrates of Cytochrome P450 2C19. [Related pubchem assays: 410 ]; type: ADME; conditions: read-out: Potency
[5] = cytotoxicity toward NIH3T3 fibroblasts, dose response, counter-screen, cell-based, ATP luminescence, mouse fibroblasts (AID 2010); type: functional;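 also: cells exposed to compound for about 90 hours before reading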
[6] = Luminescence Cell-Based Secondary HTS screen to identify cytotoxic compounds of NIH3T3 cells. [Related pubchem assays: 1885, 1968 ]; type: functional
[7] = inhibitors of intracellular T. cruzi replication, confirmation, NIH3T3 host cells, beta-gal luminescence (AID 2044); type: functional, cell-based;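 also: intracellular parasites grown in NIH/3T3 mouse fibroblasts as host cells; luminescent beta-galactosidase reporter signal from transgenic T. cruzi replicating inside host cells; inhibitors lower the luminescence signal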
[8] = Luminescence-based cell-based high throughput dose response assay to identify activators of the DAF-12 from the parasite S. stercoralis (ssDAF-12).; type: functional
[9] = Luminescence Cell-Based Dose Response HTS to Identify Inhibitors of 5'UTR Stem-Loop Driven Prion Protein mRNA Translation in H4 Neuroglioblastoma Cells. [Related pubchem assays: 1827 (Project Summary), 1813 (Primary HTS)]; type: functional
[10] = target: T2, Zinc finger protein mex-5 (Caenorhabditis elegans, UniProt Q9XUB2); experiment: MEX-5/TCR-2 RNA interaction inhibitors, dose response, biochemical, C. elegans, fluorescence polarization (AID 1960)
T2 sequence (Q9XUB2 whole entry): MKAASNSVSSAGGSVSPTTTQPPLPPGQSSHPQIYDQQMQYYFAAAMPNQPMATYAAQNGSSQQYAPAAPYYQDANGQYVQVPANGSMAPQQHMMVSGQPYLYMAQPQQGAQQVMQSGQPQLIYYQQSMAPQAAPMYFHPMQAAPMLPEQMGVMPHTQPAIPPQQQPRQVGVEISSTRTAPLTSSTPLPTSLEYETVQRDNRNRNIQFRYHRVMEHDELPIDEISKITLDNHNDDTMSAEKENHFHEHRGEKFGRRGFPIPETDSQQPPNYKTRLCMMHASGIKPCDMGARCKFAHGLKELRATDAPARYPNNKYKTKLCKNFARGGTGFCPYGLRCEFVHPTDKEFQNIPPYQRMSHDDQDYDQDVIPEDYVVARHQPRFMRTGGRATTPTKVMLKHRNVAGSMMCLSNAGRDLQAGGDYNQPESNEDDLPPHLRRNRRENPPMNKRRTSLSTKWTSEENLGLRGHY

[11] = inhibitors of SNCA 5'UTR-driven reporter translation, confirmation, H4 neuroglioma cells, luminescence (AID 1988); type: functional, cell-based
[12] = target: T3, RNA-binding protein pos-1 (Caenorhabditis elegans, UniProt G5EF15); experiment: inhibitors of POS-1/mex-3 RNA binding, dose response, biochemical, fluorescence polarization (AID 1964);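 also: purified POS-1 fused to maltose binding protein made in E. coli; potency of compounds blocking POS-1 binding to fluorescent RNA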
T3 sequence (G5EF15 whole entry): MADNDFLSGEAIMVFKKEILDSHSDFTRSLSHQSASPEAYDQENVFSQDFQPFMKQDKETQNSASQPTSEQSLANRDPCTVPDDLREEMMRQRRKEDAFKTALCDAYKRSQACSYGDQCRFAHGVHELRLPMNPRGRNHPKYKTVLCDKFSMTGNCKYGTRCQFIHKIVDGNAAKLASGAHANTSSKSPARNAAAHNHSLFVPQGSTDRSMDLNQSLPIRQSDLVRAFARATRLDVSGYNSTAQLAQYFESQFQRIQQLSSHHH

[13] = ADAM10 protease inhibitors, dose response, selectivity assay for ADAM17 exosite inhibitor project, biochemical, FRET peptide substrate, recombinant human ADAM10 (AID 743259);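 also: ADAM10 enzyme cleaving a FRET peptide substrate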
[14] = target: Disintegrin and metalloproteinase domain-containing protein 17 (Homo sapiens, UniProt P78536); experiment: exosite inhibitors of ADAM17, dose response, biochemical (AID 743260)
[15] = growth suppression of beta-catenin-knockout colon cells, dose response, cell-based, HCT116, human colon tumor (AID 1045); type: functional;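 also: HCT116 colon tumor cells with beta catenin knocked out; cells exposed to compound for 60 hours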
[16] = growth suppression of PTEN-null colon cells, dose response, cell-based, HCT116 PTEN knockout (AID 1047); type: functional;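 also: HCT116 colon tumor cells with PTEN knocked out; cells exposed to compound for 60 hours before readout; potency for loss of cell viability measured by luminescence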
Coagulation factor XII = target: T4, Coagulation factor XII (Homo sapiens, UniProt P00748); type: functional;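 also: activated factor XIIa alpha cleaving a fluorogenic AMC peptide substrate; inhibitor potency from loss of enzyme activity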
T4 sequence (P00748 whole entry): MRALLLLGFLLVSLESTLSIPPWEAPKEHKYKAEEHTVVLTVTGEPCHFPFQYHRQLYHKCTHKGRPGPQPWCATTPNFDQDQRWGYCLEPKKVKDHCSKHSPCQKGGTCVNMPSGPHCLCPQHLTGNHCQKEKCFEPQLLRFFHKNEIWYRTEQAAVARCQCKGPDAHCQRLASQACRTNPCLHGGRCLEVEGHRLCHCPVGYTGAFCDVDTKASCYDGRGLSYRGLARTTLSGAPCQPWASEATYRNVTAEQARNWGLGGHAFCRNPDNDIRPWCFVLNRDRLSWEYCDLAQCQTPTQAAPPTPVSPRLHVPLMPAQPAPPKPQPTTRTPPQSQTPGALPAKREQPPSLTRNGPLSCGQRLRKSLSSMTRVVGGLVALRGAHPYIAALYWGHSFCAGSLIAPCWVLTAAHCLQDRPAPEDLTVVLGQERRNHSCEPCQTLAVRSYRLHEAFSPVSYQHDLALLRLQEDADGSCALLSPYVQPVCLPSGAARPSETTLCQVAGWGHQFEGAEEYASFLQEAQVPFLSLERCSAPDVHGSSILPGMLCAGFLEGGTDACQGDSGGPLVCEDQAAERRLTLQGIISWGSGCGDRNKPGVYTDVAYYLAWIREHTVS

[17] = target: DNA damage-inducible transcript 3 protein (Mus musculus, UniProt P35639); type: functional, Cricetulus griseus
[18] = target: T5, Mannose-6-phosphate isomerase (Homo sapiens, UniProt P34949); experiment: human PMI inhibitors, high substrate, primary screen, biochemical, fluorescence intensity, high mannose 6-phosphate (AID 1220)
T5 sequence (P34949 whole entry): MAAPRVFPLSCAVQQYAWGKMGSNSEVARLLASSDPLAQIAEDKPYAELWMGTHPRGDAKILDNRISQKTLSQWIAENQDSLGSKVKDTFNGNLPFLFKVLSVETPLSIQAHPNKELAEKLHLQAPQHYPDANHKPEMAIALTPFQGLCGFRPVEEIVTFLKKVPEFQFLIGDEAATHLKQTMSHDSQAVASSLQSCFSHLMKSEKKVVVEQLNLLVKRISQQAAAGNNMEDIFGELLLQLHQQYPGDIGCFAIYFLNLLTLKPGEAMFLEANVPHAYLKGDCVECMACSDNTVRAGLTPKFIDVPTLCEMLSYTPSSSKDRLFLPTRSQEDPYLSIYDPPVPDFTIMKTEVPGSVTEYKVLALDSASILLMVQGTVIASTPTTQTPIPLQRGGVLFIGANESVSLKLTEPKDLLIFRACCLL

[19] = half-maximal inhibitory concentration for glucagon-like peptide-1 release, STC-1 cell line, dose-response (AID 1117345); type: functional, cell-based
[20] = Glucagon-like peptide 1 release potency, NCI-H716 cell line, dose-response, half-maximal inhibitory concentration (AID 1117344); type: functional, cell-based

Sequence of RNA-editing ligase 1, mitochondrial (P86926 whole entry, the tested form may be a part): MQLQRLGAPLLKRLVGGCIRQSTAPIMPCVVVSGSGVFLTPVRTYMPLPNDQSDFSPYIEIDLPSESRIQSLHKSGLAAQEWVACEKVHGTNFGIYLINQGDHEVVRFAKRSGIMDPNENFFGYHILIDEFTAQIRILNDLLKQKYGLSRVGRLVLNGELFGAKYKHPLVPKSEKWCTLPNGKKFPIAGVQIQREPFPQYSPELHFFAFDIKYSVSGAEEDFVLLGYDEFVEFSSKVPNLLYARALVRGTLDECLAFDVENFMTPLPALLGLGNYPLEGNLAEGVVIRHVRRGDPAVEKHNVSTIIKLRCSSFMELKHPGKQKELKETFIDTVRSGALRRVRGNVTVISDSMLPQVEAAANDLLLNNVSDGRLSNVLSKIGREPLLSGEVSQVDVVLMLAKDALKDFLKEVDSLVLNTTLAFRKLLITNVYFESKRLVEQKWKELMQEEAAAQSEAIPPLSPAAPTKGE
Sequence of DNA damage-inducible transcript 3 protein (P35639 whole entry): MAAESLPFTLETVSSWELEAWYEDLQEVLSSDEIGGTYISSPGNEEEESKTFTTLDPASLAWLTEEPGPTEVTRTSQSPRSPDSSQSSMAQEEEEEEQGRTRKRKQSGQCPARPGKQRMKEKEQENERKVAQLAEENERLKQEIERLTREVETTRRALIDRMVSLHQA
Sequence of Disintegrin and metalloproteinase domain-containing protein 17 (P78536 whole entry, the tested form may be a part): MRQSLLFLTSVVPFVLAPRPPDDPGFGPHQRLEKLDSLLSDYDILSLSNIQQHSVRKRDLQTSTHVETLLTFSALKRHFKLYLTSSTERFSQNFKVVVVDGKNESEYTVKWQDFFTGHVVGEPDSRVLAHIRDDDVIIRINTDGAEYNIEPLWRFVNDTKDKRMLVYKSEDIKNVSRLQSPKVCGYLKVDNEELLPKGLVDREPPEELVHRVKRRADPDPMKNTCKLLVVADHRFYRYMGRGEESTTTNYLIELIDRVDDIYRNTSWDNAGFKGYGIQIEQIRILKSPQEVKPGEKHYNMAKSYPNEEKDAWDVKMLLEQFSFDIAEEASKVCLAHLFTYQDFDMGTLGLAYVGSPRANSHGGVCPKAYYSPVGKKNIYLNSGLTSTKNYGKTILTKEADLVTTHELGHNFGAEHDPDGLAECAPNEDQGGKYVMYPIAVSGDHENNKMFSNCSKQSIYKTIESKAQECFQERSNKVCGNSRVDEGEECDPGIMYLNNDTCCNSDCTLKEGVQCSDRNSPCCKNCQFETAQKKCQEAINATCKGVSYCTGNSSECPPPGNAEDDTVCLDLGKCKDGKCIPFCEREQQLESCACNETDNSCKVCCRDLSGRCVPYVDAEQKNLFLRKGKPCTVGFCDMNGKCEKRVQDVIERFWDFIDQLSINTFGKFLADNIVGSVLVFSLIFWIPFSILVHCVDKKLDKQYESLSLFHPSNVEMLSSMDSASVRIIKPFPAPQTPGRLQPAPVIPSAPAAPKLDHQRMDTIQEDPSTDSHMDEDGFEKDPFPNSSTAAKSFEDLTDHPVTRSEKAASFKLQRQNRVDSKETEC
Sequence of Cytochrome P450 2C19 (P33261 whole entry): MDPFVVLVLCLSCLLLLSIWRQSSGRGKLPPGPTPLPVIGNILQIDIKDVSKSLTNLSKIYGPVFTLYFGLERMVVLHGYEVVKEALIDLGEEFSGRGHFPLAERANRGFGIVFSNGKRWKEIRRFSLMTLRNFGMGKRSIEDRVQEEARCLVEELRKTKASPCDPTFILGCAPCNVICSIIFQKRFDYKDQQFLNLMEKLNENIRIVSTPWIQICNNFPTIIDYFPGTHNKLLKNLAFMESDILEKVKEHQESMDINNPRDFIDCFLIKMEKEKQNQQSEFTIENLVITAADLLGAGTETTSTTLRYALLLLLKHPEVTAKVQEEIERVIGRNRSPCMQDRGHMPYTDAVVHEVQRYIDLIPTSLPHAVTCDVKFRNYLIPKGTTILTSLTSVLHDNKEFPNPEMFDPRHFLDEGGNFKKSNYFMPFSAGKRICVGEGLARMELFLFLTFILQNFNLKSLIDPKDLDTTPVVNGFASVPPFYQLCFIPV

Which AC50 [1] does the source give for C[C@@H]1CN([C@@H](C)CO)C(=O)c2cccc(NC(=O)c3ccncc3)c2O[C@H]1CN(C)Cc1ccccc1Cl here?
Its AC50 is 0.158 µM (active).

And the IC50 [2]?
The IC50 was 0.0114 µM (active).

With COC(=O)C1=C(C)N(Cc2cccc(C(F)(F)F)c2)C(NCc2cccc(C(F)(F)F)c2)=NC1c1ccccc1C(F)(F)F (stereo unspecified) as the compound, how does the IC50 [3] read?
Its IC50 is > 96.6 µM (inactive).

With Oc1cccc(-c2nnc(-c3cccc(O)c3)nn2)c1 as the compound, how does the EC50 [4] read?
The EC50 was > 67.6 µM (inactive).

And the EC50 (cells)?
Its EC50 is > 67.6 µM (inactive).

With O=C(CCc1ccc(O)cc1)c1c(O)cc(O)cc1O[C@@H]1O[C@@H](CO)[C@@H](O)[C@@H](O)[C@H]1O as the compound, how does the AC50 (Cytochrome P450 2C19) read?
Its AC50 is 6.31 µM (inconclusive).

Which results are given for COCc1cc(CN2CCCC(CNC(=O)c3ccc(F)cc3)C2)ccc1OC (stereo unspecified)?
EC50 [5]: > 60 µM (not active); EC50 [6]: > 195 µM (not active); EC50 [7]: 0.118 µM (active)

Which IC50 [3] does the source give for CCC(C)NC(=O)C1CCN(S(=O)(=O)c2ccc3[nH]c(=O)oc3c2)CC1 (stereo unspecified) here?
The IC50 was 19.7 µM (inactive).

With O=C1c2ccccc2C(=O)C1c1ccc2ccccc2n1 as the compound, how does the IC50 [8] read?
The IC50 was > 67.5 µM (inactive).

What about the EC50 [9] of the same compound?
The EC50 was 7.02 µM (active).

What about the EC50 [10] of the same compound?
Its EC50 is > 300 µM (not active).

And the EC50 [4]?
Its EC50 is > 67.5 µM (inactive).

And the EC50 [11]?
Its EC50 is 3.11 µM (active).

And the EC50 [12]?
Its EC50 is > 300 µM (not active).

And the EC50 (cells)?
The EC50 was > 67.5 µM (inactive).

With CCC(c1nnnn1Cc1ccccc1)N1CCC2(CC1)C(=O)NCN2c1ccccc1 (stereo unspecified) as the compound, how does the IC50 [13] read?
The IC50 was > 69.4 µM (inactive).

And the IC50 [14]?
Its IC50 is > 69.4 µM (inactive).

For COc1cc(C(=O)O/N=C2\C=CC(=O)C(C)=C2)cc(OC)c1OC, which EC50 [15] is on record?
The EC50 was 3.63 µM (active).

And the EC50 [16]?
The EC50 was 5.17 µM (active).

And the IC50 (Coagulation factor XII)?
The IC50 was 0.623 µM (active).

And the “Absolute IC50 (CHOP)” value [17]?
Its value is 10 µM.

And the IC50 [18]?
Its IC50 is > 50 µM (not active).

For COc1cc(Nc2c(C#N)cnc3cc(OCCCN4CCN(C)CC4)c(OC)cc23)c(Cl)cc1Cl, which IC50 [19] is on record?
Its IC50 is > 40 µM (inactive).

What about the IC50 [20] of the same compound?
Its IC50 is 25.1 µM (inactive).

— ChEMBL document CHEMBL1201862, “PubChem BioAssay data set” (2004)
